# Values quoted from earlier work, collected in EP0965341A2 (priority 1998, dated 1999).
# Test system: Atrial Fibrillation-Induced Electrical Remodeling
# Settings: pretreatment before AF; conclusion quoted from Circulation vol. 96, No.5, Sept. 1997
smiles,measurement,value
CCN(CC)CCNC(=O)c1ccc(N)cc1 [procainamide],"acute, AF-induced changes in atrial electrophysiological properties",not
